Tested on: 922993-354-T-J3-PDC complex spheroids, viability, % test/control
Assay: Anticancer human tumor 922993-354-T-J3-PDC patient-derived endometrial carcinoma cell line growth inhibition [CLK]
Conditions: for IC50: curve of first compound; for viability, T/C: stronger effect = lower value
Method in brief: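 Patient-derived tumor cells grown as complex spheroids with HUVEC endothelial cells and mesenchymal stem cells, treated with drug combinations. Concentrations descend in half-log steps from near clinical Cmax, or from 10 microM if Cmax unknown.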

[1] = second compound 0.0316 µM, first compound 0.0316 µM
[2] = second compound 0.0316 µM, first compound 0.1 µM
[3] = second compound 0.0316 µM, first compound 0.316 µM
[4] = second compound 0.0316 µM, first compound 1 µM
[5] = second compound 0.0316 µM, first compound 3.16 µM
[6] = second compound 0.0316 µM, first compound 10 µM
[7] = second compound 0.1 µM, first compound 0.0316 µM
[8] = second compound 0.1 µM, first compound 0.1 µM
[9] = second compound 0.1 µM, first compound 0.316 µM
[10] = second compound 0.1 µM, first compound 1 µM
[11] = second compound 0.1 µM, first compound 3.16 µM
[12] = second compound 0.1 µM, first compound 10 µM
[13] = second compound 0.316 µM, first compound 0.0316 µM
[14] = second compound 0.316 µM, first compound 0.1 µM
[15] = second compound 0.316 µM, first compound 0.316 µM
[16] = second compound 0.316 µM, first compound 1 µM
[17] = second compound 0.316 µM, first compound 3.16 µM
[18] = second compound 0.316 µM, first compound 10 µM
[19] = second compound 1 µM, first compound 0.0316 µM
[20] = second compound 1 µM, first compound 0.1 µM
[21] = second compound 1 µM, first compound 0.316 µM
[22] = second compound 1 µM, first compound 1 µM
[23] = second compound 1 µM, first compound 3.16 µM
[24] = second compound 1 µM, first compound 10 µM
[25] = second compound 3.16 µM, first compound 0.0316 µM
[26] = second compound 3.16 µM, first compound 0.1 µM
[27] = second compound 3.16 µM, first compound 0.316 µM
[28] = second compound 3.16 µM, first compound 1 µM
[29] = second compound 3.16 µM, first compound 3.16 µM
[30] = second compound 3.16 µM, first compound 10 µM
[31] = second compound 10 µM, first compound 0.0316 µM
[32] = second compound 10 µM, first compound 0.1 µM
[33] = second compound 10 µM, first compound 0.316 µM
[34] = second compound 10 µM, first compound 1 µM
[35] = second compound 10 µM, first compound 3.16 µM
[36] = second compound 10 µM, first compound 10 µM
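Also: spheroids exposed to the agents for 7 days before readout.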

`COC1C=CCC(C)C(C)S(=O)(=O)NC(=O)c2ccc3c(c2)N(CC2CCC21)CC1(CCCc2cc(Cl)ccc21)CO3` (stereo unspecified) + CNC(=O)c1ccc(Nc2nc(OC3CCCC3)c3c(-c4ccc5nc(C)oc5c4)c[nH]c3n2)c(OC)c1 showed an IC50 (second compound 0.0316 µM) of 6370 nM, an IC50 (second compound 0.1 µM) of 6790 nM and an IC50 (second compound 0.316 µM) of 2250 nM. The IC50 (second compound 1 µM) was less than 31.6 nM, the IC50 (second compound 3.16 µM) was less than 31.6 nM and the IC50 (second compound 10 µM) was less than 31.6 nM. It also gave a viability, T/C [1] of 111%, a viability, T/C [2] of 117% and a viability, T/C [3] of 104%. It also gave a viability, T/C [4] of 98.9%, a viability, T/C [5] of 90.4% and a viability, T/C [6] of 25.6%. It also gave a viability, T/C [7] of 114%, a viability, T/C [8] of 99.6% and a viability, T/C [9] of 107%. The viability, T/C [10] was 105%, the viability, T/C [11] was 103% and the viability, T/C [12] was 23%. The viability, T/C [13] was 64.6%, the viability, T/C [14] was 70.2% and the viability, T/C [15] was 66.1%. The viability, T/C [16] was 57%, the viability, T/C [17] was 47.5% and the viability, T/C [18] was 17.9%. For the same compound, the viability, T/C [19] was 33.7%, the viability, T/C [20] was 39% and the viability, T/C [21] was 32.1%. It also gave a viability, T/C [22] of 27.7%, a viability, T/C [23] of 21.2% and a viability, T/C [24] of 11%. For the same compound, the viability, T/C [25] was 27.3%, the viability, T/C [26] was 30.2% and the viability, T/C [27] was 25.7%. The viability, T/C [28] was 20.8%, the viability, T/C [29] was 16.5% and the viability, T/C [30] was 9.29%. It also gave a viability, T/C [31] of 29.8%, a viability, T/C [32] of 25.2% and a viability, T/C [33] of 23.3%. For the same compound, the viability, T/C [34] was 17.3%, the viability, T/C [35] was 13.4% and the viability, T/C [36] was 10.7%.
Compound `Cn1ncnc1[C@H]1c2n[nH]c(=O)c3cc(F)cc(c23)N[C@@H]1c1ccc(F)cc1` + CN1CCN(c2cc(C(=O)Nc3cc4cc(-c5cnn(C)c5)ccc4cn3)ccn2)CC1 has an IC50 (second compound 0.0316 µM) greater than 100 nM, an IC50 (second compound 0.1 µM) greater than 100 nM and an IC50 (second compound 0.316 µM) of less than 0.316 nM. For the same compound, the IC50 (second compound 1 µM) was less than 0.316 nM, the IC50 (second compound 3.16 µM) was less than 0.316 nM and the IC50 (second compound 10 µM) was less than 0.316 nM. The viability, T/C (second compound 0.0316 µM, first compound 0.000316 µM) was 126%, the viability, T/C (second compound 0.0316 µM, first compound 0.001 µM) was 121% and the viability, T/C (second compound 0.0316 µM, first compound 0.00316 µM) was 104%. It also gave a viability, T/C (second compound 0.0316 µM, first compound 0.01 µM) of 119%, a viability, T/C [1] of 119% and a viability, T/C [2] of 75.3%. It also gave a viability, T/C (second compound 0.1 µM, first compound 0.000316 µM) of 110%, a viability, T/C (second compound 0.1 µM, first compound 0.001 µM) of 101% and a viability, T/C (second compound 0.1 µM, first compound 0.00316 µM) of 102%. The viability, T/C (second compound 0.1 µM, first compound 0.01 µM) was 103%, the viability, T/C [7] was 116% and the viability, T/C [8] was 75.3%. The viability, T/C (second compound 0.316 µM, first compound 0.000316 µM) was 43.1%, the viability, T/C (second compound 0.316 µM, first compound 0.001 µM) was 35.2% and the viability, T/C (second compound 0.316 µM, first compound 0.00316 µM) was 41.5%. For the same compound, the viability, T/C (second compound 0.316 µM, first compound 0.01 µM) was 32.7%, the viability, T/C [13] was 35.6% and the viability, T/C [14] was 20.4%. For the same compound, the viability, T/C (second compound 1 µM, first compound 0.000316 µM) was 0.13%, the viability, T/C (second compound 1 µM, first compound 0.001 µM) was 0.83% and the viability, T/C (second compound 1 µM, first compound 0.00316 µM) was 0.12%. It also gave a viability, T/C (second compound 1 µM, first compound 0.01 µM) of 0.32%, a viability, T/C [19] of 0.11% and a viability, T/C [20] of 0.89%. For the same compound, the viability, T/C (second compound 3.16 µM, first compound 0.000316 µM) was 0.12%, the viability, T/C (second compound 3.16 µM, first compound 0.001 µM) was 1.22% and the viability, T/C (second compound 3.16 µM, first compound 0.00316 µM) was 0.35%. The viability, T/C (second compound 3.16 µM, first compound 0.01 µM) was 0.07%, the viability, T/C [25] was 0.95% and the viability, T/C [26] was 1.3%. The viability, T/C (second compound 10 µM, first compound 0.000316 µM) was 0.13%, the viability, T/C (second compound 10 µM, first compound 0.001 µM) was 0.16% and the viability, T/C (second compound 10 µM, first compound 0.00316 µM) was 0.88%. The viability, T/C (second compound 10 µM, first compound 0.01 µM) was 0.13%, the viability, T/C [31] was 1.94% and the viability, T/C [32] was 2.55%.
For `O=C(c1cc(Cc2n[nH]c(=O)c3ccccc23)ccc1F)N1CCN(C(=O)C2CC2)CC1` + CN1CCN(c2cc(C(=O)Nc3cc4cc(-c5cnn(C)c5)ccc4cn3)ccn2)CC1, the IC50 (second compound 0.0316 µM) was greater than 10000 nM, the IC50 (second compound 0.1 µM) was greater than 10000 nM and the IC50 (second compound 0.316 µM) was less than 31.6 nM. The IC50 (second compound 1 µM) was less than 31.6 nM, the IC50 (second compound 3.16 µM) was less than 31.6 nM and the IC50 (second compound 10 µM) was less than 31.6 nM. It also gave a viability, T/C [1] of 118%, a viability, T/C [2] of 106% and a viability, T/C [3] of 108%. It also gave a viability, T/C [4] of 117%, a viability, T/C [5] of 93.5% and a viability, T/C [6] of 97%. The viability, T/C [7] was 92.1%, the viability, T/C [8] was 98.6% and the viability, T/C [9] was 95.8%. The viability, T/C [10] was 87%, the viability, T/C [11] was 84.6% and the viability, T/C [12] was 84.8%. For the same compound, the viability, T/C [13] was 44.1%, the viability, T/C [14] was 32% and the viability, T/C [15] was 24.3%. For the same compound, the viability, T/C [16] was 33%, the viability, T/C [17] was 39.1% and the viability, T/C [18] was 32.2%. The viability, T/C [19] was 0.1%, the viability, T/C [20] was 0.12% and the viability, T/C [21] was 1.56%. It also gave a viability, T/C [22] of 0.08%, a viability, T/C [23] of 1.32% and a viability, T/C [24] of 1.97%. It also gave a viability, T/C [25] of 0.08%, a viability, T/C [26] of 0.63% and a viability, T/C [27] of 0.57%. It also gave a viability, T/C [28] of 0.11%, a viability, T/C [29] of 1.25% and a viability, T/C [30] of 1.13%. The viability, T/C [31] was 0.12%, the viability, T/C [32] was 1.28% and the viability, T/C [33] was 2.09%. For the same compound, the viability, T/C [34] was 1.28%, the viability, T/C [35] was 0.42% and the viability, T/C [36] was 2.31%.

Reference: PubChem BioAssay AID2060606 (Molecular Pharmacology Branch, DTP, NCI, 2025)
